Reference: patent US11865129B2, “Application of anemoside B4 in preparation of a drug for treatment or prevention of psoriasis” (GUANGXI XINHAI PHARMACEUTICAL TECHNOLOGY CO., LTD., priority 2021, dated 2024)

Tests used:
[1] = tested on: IL-17; experiment: IL-17 level in serum by ELISA, psoriasis model rats; type: in vivo, SD male rats; conditions: 7 days, vs model control group
Description: (§1) 60 SPF-grade SD male rats in the second animal group are divided into 6 groups: a blank control group, a model control group, an anemoside B4 intragastric administration group (5 mg/kg), an anemoside B4 intragastric administration group (10 mg/kg), an anemoside B4 intragastric administration group (20 mg/kg), and an acitretin intragastric administration group (5 mg/kg), and are respectively expressed into the blank control group, the model group, anemoside B4 5 mg/kg, anemoside B4 10 mg/kg, anemoside B4 20 mg/kg, and acitretin 5 mg/kg in FIGS. 3, 4 and 5 for convenience. A shaving area on the back of the rats in each group is 2.5 cm×3 cm, and the vellus is removed with mild depilatory cream. The rats of each group except the blank control group are modeled by administrating 62.5 mg 5% imiquimod cream on the shaving area until the skin is thickened and has erythema and silver scales for modeling completely.
(§2) 5% imiquimod cream is administrated once a day, and continuously administrated for 8 days for model establishment. On the second day, the rats in each group are continuously intragastric (i.g.) administered drugs for 7 days.
(§3) After administration, blood is taken from abdominal aorta of the rats in each group of the second animal group, centrifuged to collect the serum, and measured the M-CSF, VEGF, IL-6 and IL-17 level in the serum by ELISA kits according to the procedures of specification.

[2] = tested on: psoriasis skin lesions; experiment: Histopathological observation of skin (HE staining), psoriasis model mice; type: in vivo, BALB/c male mice; conditions: 12 days
Description: (§4) A shaving area on the back of the mice in each group is 2.5 cm×3 cm, and the vellus is removed with mild depilatory cream. The mice of each group except the blank control group are modeled by administrating 62.5 mg 5% imiquimod cream on the shaving area until the skin is thickened and has erythema and silver scales for modeling completely. During the model establishment, 5% imiquimod cream is administrated once a day, and continuously administrated for 14 days. On the third day, the model establishment is continued and drugs are administered at the same time, wherein the mice in the AC intragastric administration group (8 mg/kg), the anemoside B4 intragastric (i.g.) administration group (5 mg/kg), the anemoside B4 intragastric administration group (10 mg/kg), and the anemoside B4 intragastric administration group (20 mg/kg) are administrated once a day, and continuously administrated for 12 days. […] The mice in the blank control group and the model control group are applied 62.5 mg Vaseline to the skin lesions once a day, and continuously applied for 12 days. The weight of the mice is recorded for counting the weight change of the mice. After blood collection of the mice in each group of the first animal group, the mice are killed by dislocation of cervical vertebra, separated the skin in the skin lesions, and removed subcutaneous fat. Taking a part, fixing it with 4% paraformaldehyde, embedding, obtaining section, dying with hematoxylin and eosin (HE), and observing histopathological changes of the skin under a light microscope.

[3] = tested on: IL-1β; experiment: IL-1β level in skin tissue, psoriasis model mice; type: in vivo, BALB/c male mice; conditions: 12 days, compared with model control group
Description: as §4, with “100 mg skin tissue” for “After blood collection”, “group are precisely weighed, added 0.9 mL ice normal saline, homogenized with” for “group,”, “tissue grinder, and centrifuged at 4° C. and 3000 rpm for 10 min. The supernatant is collected, and IL-12, IL-17, IL-6 and IL-1β level” for “mice are killed by dislocation of cervical vertebra, separated the skin”, “tissue are measured by kits according to the procedures” for “lesions, and removed subcutaneous fat. Taking a part, fixing it with 4% paraformaldehyde, embedding, obtaining section, dying with hematoxylin and eosin (HE), and observing histopathological changes”, “specification.” for “the skin under a light microscope.”

[4] = tested on: M-CSF; experiment: M-CSF level in serum by ELISA, psoriasis model rats; type: in vivo, SD male rats; conditions: 7 days, vs model control group
Description: as §1, §2, §3

[5] = tested on: IL-6; experiment: IL-6 level in serum by ELISA, psoriasis model rats; type: in vivo, SD male rats; conditions: 7 days, vs model control group
Description: as §1, §2, §3

[6] = tested on: spleen; experiment: Spleen coefficient, psoriasis model mice; type: in vivo, BALB/c male mice; conditions: 12 days, compared with model control group
Description: as §4, with “vertebra, quickly” for “vertebra,”, “spleen and weighed to obtain” for “skin in”, “wet weight” for “skin lesions, and removed subcutaneous fat. Taking a part, fixing it with 4% paraformaldehyde, embedding, obtaining section, dying with hematoxylin and eosin (HE), and observing histopathological changes”, “spleen, recording and calculating the spleen coefficient, wherein the spleen coefficient (%)=(spleen wet weight/body weight)×100%.” for “skin under a light microscope.”

[7] = tested on: IL-6; experiment: IL-6 level in skin tissue, psoriasis model mice; type: in vivo, BALB/c male mice; conditions: 12 days, compared with model control group
Description: as §4, with “100 mg skin tissue” for “After blood collection”, “group are precisely weighed, added 0.9 mL ice normal saline, homogenized with” for “group,”, “tissue grinder, and centrifuged at 4° C. and 3000 rpm for 10 min. The supernatant is collected, and IL-12, IL-17, IL-6 and IL-1β level” for “mice are killed by dislocation of cervical vertebra, separated the skin”, “tissue are measured by kits according to the procedures” for “lesions, and removed subcutaneous fat. Taking a part, fixing it with 4% paraformaldehyde, embedding, obtaining section, dying with hematoxylin and eosin (HE), and observing histopathological changes”, “specification.” for “the skin under a light microscope.”

[8] = intragastric 5 mg/kg once a day
[9] = intragastric 10 mg/kg once a day
[10] = intragastric 20 mg/kg once a day

## C=C(C)[C@@H]1CC[C@]2(C(=O)O[C@@H]3O[C@H](CO[C@@H]4O[C@H](CO)[C@@H](O[C@@H]5O[C@@H](C)[C@H](O)[C@@H](O)[C@H]5O)[C@H](O)[C@H]4O)[C@@H](O)[C@H](O)[C@H]3O)CC[C@]3(C)[C@H](CC[C@@H]4[C@@]5(C)CC[C@H](O[C@@H]6OC[C@H](O)[C@H](O)[C@H]6O[C@@H]6O[C@@H](C)[C@H](O)[C@@H](O)[C@H]6O)[C@@](C)(CO)[C@@H]5CC[C@]43C)[C@H]12 [anemoside B4]
[1]; intragastric 5 mg/kg
  IL-17 level in serum: significantly decreased
[1]; intragastric 10 mg/kg
  IL-17 level in serum: significantly decreased
[1]; intragastric 20 mg/kg
  IL-17 level in serum: significantly decreased
[2]; [8]
  psoriasis skin lesions, HE staining of skin tissue: significantly improved
[2]; [9]
  psoriasis skin lesions, HE staining of skin tissue: significantly improved
[2]; [10]
  psoriasis skin lesions, HE staining of skin tissue: significantly improved
[3]; [8]
  level of IL-1β in the skin tissue: significantly reduced
[3]; [9]
  level of IL-1β in the skin tissue: significantly reduced
[3]; [10]
  level of IL-1β in the skin tissue: significantly reduced
[4]; intragastric 5 mg/kg
  M-CSF level in serum: significantly decreased
[4]; intragastric 10 mg/kg
  M-CSF level in serum: significantly decreased
[4]; intragastric 20 mg/kg
  M-CSF level in serum: significantly decreased
[5]; intragastric 5 mg/kg
  IL-6 level in serum: significantly decreased
[5]; intragastric 10 mg/kg
  IL-6 level in serum: significantly decreased
[5]; intragastric 20 mg/kg
  IL-6 level in serum: significantly decreased
[6]; [8]
  enlargement of the spleen: significantly relieved
  spleen coefficient: significantly decreased
[6]; [9]
  enlargement of the spleen: significantly relieved
  spleen coefficient: significantly decreased
[6]; [10]
  enlargement of the spleen: significantly relieved
  spleen coefficient: significantly decreased
[7]; [8]
  level of IL-6 in the skin tissue: significantly reduced
[7]; [9]
  level of IL-6 in the skin tissue: significantly reduced
[7]; [10]
  level of IL-6 in the skin tissue: significantly reduced
